Tests used:
[1] = Fluorescence excitation and emission spectra (Perkin-Elmer LS-5B Luminescence Spectrometer); type: physicochemical; conditions: 10 micromolar solution
Method: Excitation and emission spectra of a 10 micromolar solution of compounds IIa and IIb were determined using a Perkin-Elmer LS-5B Luminescence Spectrometer.

[2] = test system: mouse PAM 212 keratinocytes; assay: Growth inhibition of tumor cells in culture, Coulter Counter cell count after 5 days; type: cell-based; conditions: PAM212, 120 h, read-out: IC50 of fused ring triazole (concentration inhibiting growth of cell line by 50%)
Method: (§1) Experiments were performed in accordance with the procedure described by Yurkow and Laskin (Cancer Chemother. Pharmacol. 1991 27:315-319). In these experiments, tumor cells were maintained in culture in growth medium consisting of Dulbecco's modified Eagle's medium (DMEM) supplemented with 10% fetal bovine. Tumor cells were plated at low density (5000 cells/well) in 6-well tissue culture dishes and allowed to adhere overnight. The medium was then replaced with phenol red-free DMEM supplemented with increasing concentrations of the compounds, with zero concentration of compound serving as the control. Six concentrations and a control were used for each inhibitor, and each concentration was tested in triplicate. After 5 days, cells were removed from the dishes and enumerated using a Coulter Counter (Coulter Electronics, Inc.). The controls and treated samples at each concentration were averaged. Data are presented as the percentage of control growth at each concentration of the compound, plus and minus the standard error. The IC50 for growth inhibition was the concentration of each compound that inhibited growth by 50%. These are depicted in Table 1.

[3] = test system: mouse B16 melanoma; assay: as above; type: cell-based; conditions: 120 h, read-out: IC50 of fused ring triazole (concentration inhibiting growth of cell line by 50%)
Method: as §1

[4] = test system: human HeLa cervical carcinoma; assay: as above; type: cell-based; conditions: 120 h, read-out: IC50 of fused ring triazole (concentration inhibiting growth of cell line by 50%)
Method: as §1

[5] = test system: human CX-1 colon cells; assay: as above; type: cell-based; conditions: 120 h, read-out: IC50 of fused ring triazole (concentration inhibiting growth of cell line by 50%)
Method: as §1

SMILES | Emission peak [1] [nm] | IC50 [2] [µM] | IC50 [3] [µM] | IC50 [4] [µM] | IC50 [5] [µM] | Excitation peaks [1] [nm]
C1=Nn2c(nnc2-c2ccncc2)S/C1=C\c1ccccc1 [Compound IIa, 3-(4-pyridyl)-7-(phenylmethylene)-s-triazolo[3,4-b] [1,3,4]-thiadiazine] | 358 | 10 | 9 | 4 | 17 | 
C1=Nn2c(nnc2-c2ccccn2)S/C1=C\c1ccccc1 [Compound IIb, 3-(2-pyridyl)-7-(phenylmethylene)-s-triazolo[3,4-b] [1,3,4]-thiadiazine] | 320 | 18 | 15 | 9 | 30 | 249
C1=Nn2c(nnc2-c2cccs2)S/C1=C\c1ccccc1 [Compound IId, 3-(2-thienyl)-7-(phenylmethylene)-s-triazolo[3,4-b] [1,3,4]-thiadiazine] |  | 18 | 23 | 28 | 20 | 

Reference: patent US20060270664A1, “Fluorescent fused-ring triazoles that inhibit cell proliferation and uses thereof” (priority 2004, published 2006)
